This is an account of results in article PMC2866097 (Meat science, 2010).

The target in data set [1] is bovine slow myosin subfragment 1 (slow S1, masseter) (Bos taurus, UniProt Q9BE39). The experiment in a line: biochemical.
Data set [2] relates to bovine fast myosin subfragment 1 (fast S1, cutaneous trunci).
Substrate in the data set “purified protein”: O=P(O)(O)OP(=O)(O)OP(=O)(O)O
Put plainly: purified protein. The note with it: Mg2+.

Chain of bovine slow myosin subfragment 1 (slow S1, masseter) (P85100 2-199 partner, one chain of several): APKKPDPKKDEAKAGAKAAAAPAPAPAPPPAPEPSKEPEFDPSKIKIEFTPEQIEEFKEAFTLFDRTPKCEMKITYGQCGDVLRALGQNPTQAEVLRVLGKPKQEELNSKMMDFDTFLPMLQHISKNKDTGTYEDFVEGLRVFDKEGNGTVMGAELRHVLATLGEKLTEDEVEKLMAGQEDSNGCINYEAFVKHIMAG

By Ki is commonly meant the equilibrium dissociation constant of an inhibitor or competing ligand from its target. A higher Ki goes with a looser hold on the target. Take `O=P(O)(O)OP(=O)(O)O` [PPi, pyrophosphate]: the Ki turned out to be 18 ± 1.8 µM in data set [1] and 88 ± 6.9 µM in data set [2].

B1: bovine slow myosin subfragment 1 (slow S1, masseter) (Bos taurus) (protein)
chain: MVDAEMAAFGEAAPYLRKSEKERLEAQTRPFDLKKDVFVPDDKEEFVKATILSREGGKVTAETEHGKTVTVKEDQVLQQNPPKFDKIEDMAMLTFLHEPAVLYNLKERYASWMIYTYSGLFCVTINPYKWLPVYNAEVVAAYRGKKRSEAPPHIFSISDNAYQYMLTDRENQSILITGESGAGKTVNTKRVIQYFAVIAAIGDRSKKEQATGKGTLEDQIIQANPALEAFGNAKTVRNDNSSRFGKFIRIHFGATGKLASADIETYLLEKSRVIFQLKAERDYHIFYQILSNKKPELLDMLLITNNPYDYAFISQGETTVASIDDAEELMATDNAFDVLGFTTEEKNSMYKLTGAIMHFGNMKFKLKQREEQAEPDGTEEADKSAYLMGLNSADLLKGLCHPRVKVGNEYVTKGQNVQQVVYAKGALAKAVYERMFNWMVTRINATLETKQPRQYFIGVLDIAGFEIFDFNSFEQLCINFTNEKLQQFFNHHMFVLEQEEYKKEGIEWEFIDFGMDLQACIDLIEKPMGIMSILEEECMFPKATDMTFKAKLFDNHLGKSSNFQKPRNIKGKPEAHFSLIHYAGTVDYNIIGWLQKNKDPLNETVVDLYKKSSLKMLSSLFANYAGFDTPIEKGKGKAKKGSSFQTVSALHRENLNKLMTNLRSTHPHFVRCIIPNETKSPGVIDNPLVMHQLRCNGVLEGIRICRKGFPNRILYGDFRQRYRILNPAAIPEGQFIDSRKGAEKLLGSLDIDHNQYKFGHTKVFFKAGLLGLLEEMRDERLSRIITRIQAQSRGVLSRMEFKKLLERRDSLLIIQWNIRAFMGVKNWPWMKLYFKIKPLL
What is called Km is the substrate concentration at which the rate is half of its maximum. As to B1, the Km in “purified protein” was 380 ± 130 µM.
